Tests used:
Assay in all cases: MIC, NCCLS broth microdilution
Type in all cases: cell-based
[1] = tested on: Pseudomonas aeruginosa 1973E; settings: for MIC of antibiotic: antibiotic alone, no inhibitor
Procedure: Antimicrobial activity of the compounds and of their combinations was determined against a selection of organisms according to the standard procedures described by the National Committee for Clinical Laboratory Standards (National Committee for Clinical Laboratory. Standards (2000). Methods for Dilution Antimicrobial Susceptibility Tests for Bacteria That Grow Aerobically-Fifth Edition: Approved Standard M7-A5. NCCLS, Wayne, Pa., USA).
In all cases the final concentration of DMSO incubated with the bacteria is less than or equal to 1%. […] Plates were incubated overnight at an appropriate temperature (30° C. or 37° C.) and optical densities assessed by eye. The MIC value is defined as the lowest compound concentration completely inhibiting visible growth of the test organism. When combinations between compounds of formula I with compounds of formula II and are evaluated the compounds of formula I are tested in dilution series as described above while the compounds of formula II and III-XIII were present in all wells at a constant concentration of 4 μg/mL each.

Serratia marcescens S6 = settings: for MIC of antibiotic: antibiotic alone, no inhibitor
[2] = tested on: Stenotrophomonas malthophilia 1AC736; settings: Stenotrophomonas maltophilia 1AC736; for MIC of antibiotic: antibiotic alone, no inhibitor
[3] = tested on: Klebsiella pneumoniae CF104; settings: for MIC of antibiotic: antibiotic alone, no inhibitor
[4] = tested on: Pseudomonas aeruginosa MK1184; settings: for MIC of antibiotic: antibiotic alone, no inhibitor
Acinetobacter sp. J2 = settings: Acinetobacter baumannii J2; for MIC of antibiotic: antibiotic alone, no inhibitor
Enterobacter cloacae P99 = settings: for MIC of antibiotic: antibiotic alone, no inhibitor

C[C@H]1[C@H](NC(=O)/C(=N\OCc2cc(=O)c(O)cn2O)c2nccc(N)n2)C(=O)N1S(=O)(=O)O [Compound 21, (3S,4S)-3-{(2Z)-2-(4-aminopyrimidin-2-yl)-3-[(1,5-dihydroxy-4-oxo(2-hydropyridyl))methoxy]-3-azaprop-2-enoylamino}-4-methyl-2-oxoazetidinesulfonic acid]
<0.06 µg/mL: MIC of antibiotic at fixed inhibitor concentration of 4 mg/L ([3]; with 102 and clavulanate)
1 µg/mL: MIC of antibiotic at fixed inhibitor concentration of 4 mg/L ([3]; with 323 and sulbactam)
16 µg/mL: MIC of antibiotic at fixed inhibitor concentration of 4 mg/L ([1]; with 102 and sulbactam) | MIC of antibiotic at fixed inhibitor concentration of 4 mg/L ([1]; with 323 and clavulanate) | MIC of antibiotic at fixed inhibitor concentration of 4 mg/L ([1]; with 324 and sulbactam) | MIC of antibiotic at fixed inhibitor concentration of 4 mg/L (Serratia marcescens S6; with 102 and sulbactam) | MIC of antibiotic at fixed inhibitor concentration of 4 mg/L ([4]; with 102 and clavulanate)
32 µg/mL: MIC of antibiotic at fixed inhibitor concentration of 4 mg/L ([1]; with 323 and sulbactam) | MIC of antibiotic at fixed inhibitor concentration of 4 mg/L ([4]; with 102 and sulbactam) | MIC of antibiotic at fixed inhibitor concentration of 4 mg/L ([4]; with 323 and clavulanate) | MIC of antibiotic at fixed inhibitor concentration of 4 mg/L ([4]; with 324 and sulbactam) | MIC of antibiotic at fixed inhibitor concentration of 4 mg/L (Enterobacter cloacae P99; with 102 and clavulanate) | MIC of antibiotic at fixed inhibitor concentration of 4 mg/L (Enterobacter cloacae P99; with 102 and sulbactam)
2 µg/mL: MIC of antibiotic at fixed inhibitor concentration of 4 mg/L (Serratia marcescens S6; with 323 and clavulanate) | MIC of antibiotic at fixed inhibitor concentration of 4 mg/L (Serratia marcescens S6; with 323 and sulbactam) | MIC of antibiotic at fixed inhibitor concentration of 4 mg/L ([2]; with 102 and clavulanate) | MIC of antibiotic at fixed inhibitor concentration of 4 mg/L ([2]; with 323 and clavulanate) | MIC of antibiotic at fixed inhibitor concentration of 4 mg/L ([3]; with 102 and sulbactam) | MIC of antibiotic at fixed inhibitor concentration of 4 mg/L ([3]; with 323 and clavulanate) | MIC of antibiotic at fixed inhibitor concentration of 4 mg/L (Acinetobacter sp. J2; with 102 and sulbactam) | MIC of antibiotic at fixed inhibitor concentration of 4 mg/L (Acinetobacter sp. J2; with 323 and sulbactam) | MIC of antibiotic at fixed inhibitor concentration of 4 mg/L (Acinetobacter sp. J2; with 324 and sulbactam)
8 µg/mL: MIC of antibiotic [1] | MIC of antibiotic at fixed inhibitor concentration of 4 mg/L ([1]; with 102 and clavulanate) | MIC of antibiotic (Serratia marcescens S6) | MIC of antibiotic [2] | MIC of antibiotic at fixed inhibitor concentration of 4 mg/L ([2]; with 102 and sulbactam) | MIC of antibiotic at fixed inhibitor concentration of 4 mg/L ([4]; with 323 and sulbactam) | MIC of antibiotic at fixed inhibitor concentration of 4 mg/L (Acinetobacter sp. J2; with 323 and clavulanate) | MIC of antibiotic at fixed inhibitor concentration of 4 mg/L (Enterobacter cloacae P99; with 323 and clavulanate) | MIC of antibiotic at fixed inhibitor concentration of 4 mg/L (Enterobacter cloacae P99; with 323 and sulbactam) | MIC of antibiotic at fixed inhibitor concentration of 4 mg/L (Enterobacter cloacae P99; with 324 and sulbactam)
>32 µg/mL: MIC of antibiotic [3] | MIC of antibiotic [4] | MIC of antibiotic (Acinetobacter sp. J2) | MIC of antibiotic at fixed inhibitor concentration of 4 mg/L (Acinetobacter sp. J2; with 102 and clavulanate) | MIC of antibiotic (Enterobacter cloacae P99)
4 µg/mL: MIC of antibiotic at fixed inhibitor concentration of 4 mg/L (Serratia marcescens S6; with 324 and sulbactam) | MIC of antibiotic at fixed inhibitor concentration of 4 mg/L ([2]; with 323 and sulbactam) | MIC of antibiotic at fixed inhibitor concentration of 4 mg/L ([2]; with 324 and sulbactam) | MIC of antibiotic at fixed inhibitor concentration of 4 mg/L ([3]; with 324 and sulbactam)
0.5 µg/mL: MIC of antibiotic at fixed inhibitor concentration of 4 mg/L (Serratia marcescens S6; with 102 and clavulanate)

C[C@H]1[C@H](NC(=O)/C(=N\OCc2cc(=O)c(O)cn2O)c2csc(N)n2)C(=O)N1OCC(=O)O [Compound 22, 2-((3S,4S)-3-{(2Z)-2-(2-amino(1,3-thiazol-4-yl))-3-[(1,5-dihydroxy-4-oxo(2-hydropyridyl))methoxy]-3-azaprop-2-enoylamino}-4-methyl-2-oxoazetidinyloxy)acetic acid]
1 µg/mL: MIC of antibiotic at fixed inhibitor concentration of 4 mg/L ([2]; with 102 and clavulanate) | MIC of antibiotic at fixed inhibitor concentration of 4 mg/L ([2]; with 324 and clavulanate) | MIC of antibiotic at fixed inhibitor concentration of 4 mg/L ([2]; with 324 and sulbactam)
0.13 µg/mL: MIC of antibiotic (Serratia marcescens S6) | MIC of antibiotic at fixed inhibitor concentration of 4 mg/L (Serratia marcescens S6; with 324 and clavulanate) | MIC of antibiotic at fixed inhibitor concentration of 4 mg/L (Serratia marcescens S6; with 324 and sulbactam)
4 µg/mL: MIC of antibiotic [1] | MIC of antibiotic at fixed inhibitor concentration of 4 mg/L ([1]; with 102 and clavulanate) | MIC of antibiotic at fixed inhibitor concentration of 4 mg/L ([1]; with 324 and clavulanate) | MIC of antibiotic at fixed inhibitor concentration of 4 mg/L ([1]; with 324 and sulbactam) | MIC of antibiotic at fixed inhibitor concentration of 4 mg/L ([3]; with 324 and sulbactam) | MIC of antibiotic at fixed inhibitor concentration of 4 mg/L ([4]; with 102 and clavulanate) | MIC of antibiotic at fixed inhibitor concentration of 4 mg/L ([4]; with 324 and clavulanate) | MIC of antibiotic at fixed inhibitor concentration of 4 mg/L ([4]; with 324 and sulbactam) | MIC of antibiotic at fixed inhibitor concentration of 4 mg/L (Acinetobacter sp. J2; with 102 and clavulanate) | MIC of antibiotic at fixed inhibitor concentration of 4 mg/L (Enterobacter cloacae P99; with 324 and clavulanate) | MIC of antibiotic at fixed inhibitor concentration of 4 mg/L (Enterobacter cloacae P99; with 324 and sulbactam)
2 µg/mL: MIC of antibiotic at fixed inhibitor concentration of 4 mg/L (Acinetobacter sp. J2; with 324 and sulbactam)
>32 µg/mL: MIC of antibiotic [3] | MIC of antibiotic (Acinetobacter sp. J2) | MIC of antibiotic (Enterobacter cloacae P99)
0.5 µg/mL: MIC of antibiotic [2]
8 µg/mL: MIC of antibiotic [4] | MIC of antibiotic at fixed inhibitor concentration of 4 mg/L (Acinetobacter sp. J2; with 324 and clavulanate) | MIC of antibiotic at fixed inhibitor concentration of 4 mg/L (Enterobacter cloacae P99; with 102 and clavulanate)
0.25 µg/mL: MIC of antibiotic at fixed inhibitor concentration of 4 mg/L (Serratia marcescens S6; with 102 and clavulanate) | MIC of antibiotic at fixed inhibitor concentration of 4 mg/L ([3]; with 102 and clavulanate) | MIC of antibiotic at fixed inhibitor concentration of 4 mg/L ([3]; with 324 and clavulanate)
